In patent US6017918A, “Phenyl glycine compounds and methods of treating atherosclerosis and restenosis” (Warner-Lambert Company, priority 1999, dated 2000) one finds IC50 data, which are given here for 29 compounds.

“And” between values parts separate entries of the source, which are not always exact repeats. Equal values may be shown once. Some results are limits rather than exact numbers.

Assay [1] relates to Lp(a) production (HepG2^K17 cells). Kind of assay: LPA3 screen: inhibition of Lp(a) production in HepG2^K17 cells, Lp(a) by ELISA. As to conditions: 8 h, Lp(a) normalized for total protein, ^a = multiple tests. The format is cell-based. How it is done: The LPA3 screen is used to identify compounds that inhibit Lp(a) production. This screen employs permanently transfected HepG2 cells (HepG2^K17) that are generated using an apo(a) 17-kringle cDNA expression construct (pcDNA-AMP, In Vitrogen, Carlsbad, Calif.) in accordance with methods that are well-known in molecular biology.
HepG2^K17 cells are seeded in 96-well plates at a density of 75,000 cells per well in 0.25 mL of Dulbecco's Modified Eagle Media (DMEM) containing 10% fetal bovine serum (FBS). Seeded plates are incubated overnight in a 37° C., 5% CO2 /95% […] incubator. The media is removed, replaced with (1) fresh media, or (2) fresh media plus 0.3 to 50 μM of a compound of the present invention in 20 μL of PBS, and the plates returned to the incubator for 8 hours. After the additional 8 hours of incubation, Lp(a) is assayed in the media by ELISA. Cells are digested with 0.5N NaOH overnight and assayed for total protein. Lp(a) values are normalized for total protein content.
Background: ELISA stands for enzyme-linked immunosorbent assay.

Assay [2] has as its system apolipoprotein(a), [apo(a)], apolipoproteinB-100, [apoB-100], coupling reaction that generates Lp(a). As to the kind of experiment: LPABC screen: lipoprotein(a) biochemical coupling assay, Lp(a) by ELISA. As to conditions: recombinant apo(a) + HepG2 conditioned media, 67 minutes, 37° C.; ^a = multiple tests. The source says:
The lipoprotein(a), [Lp(a)], biochemical coupling assay (LPABC) is used to characterize inhibitors of the apolipoprotein(a), [apo(a)], apolipoproteinB-100, [apoB-100], coupling reaction that generates Lp(a).
Protocol Conditioned media from 293 cells (ATCC CRL-1573), permanently transfected with an apo(a) 17-kringle cDNA expression construct (pcDNA-AMP, In Vitrogen, Carlsbad, Calif.) using standard molecular biology techniques, was used as a source of recombinant apo(a). The 293 cell conditioned media containing the recombinant apo(a) is diluted 1:3 with phosphate buffered saline (PBS) and 90 μL is pipetted into each well of a 96-well plate and placed into a 37° C. incubator for 10 minutes. Twenty microliters of a 0.3 to 50 μM solution of a compound of the present invention in PBS is added to the warmed plate. Ninety microliters of HepG2 (ATCC HB-8065) cell conditioned media diluted 1:3 with PBS is added to the apo(a)/compound mixture and mixed by pipetting up and down 5 times. The reaction is incubated for 67 minutes in a 37° C. incubator. A 100 μL aliquot of the reaction is removed and assayed for its Lp(a) content by an enzyme linked immunosorbent assay (ELISA).

For `CCOC(=O)C(NCc1ccccc1F)c1cc(C(C)(C)C)c(O)c(C(C)(C)C)c1` (centres unmarked) [Example 40, (3,5-Di-tert-butyl-4-hydroxy-phenyl)-(2-fluoro-benzylamino]-acetic acid ethyl ester], the IC50 in assay [1] is greater than 74 µM; in assay [2] it was 50.2 µM.

As for `CCOC(=O)C(NCc1cc(O)c(OC)c(OC)c1)c1cc(C(C)(C)C)c(O)c(C(C)(C)C)c1` (centres unmarked) [Example 14, (3,5-Di-tert-butyl-4-hydroxy-phenyl)-(3-hydroxy-4,5-dimethoxy-benzylamino)-acetic acid ethyl ester], the results for the concentration for half-maximal inhibition (IC50) in assay [1] and in assay [2] were 9.3 µM and 10.6 µM, respectively.

Regarding `CCOC(=O)C(NCc1ccc(O)c(OCC)c1)c1cc(C(C)(C)C)c(O)c(C(C)(C)C)c1` (centres unmarked) [Example 39, (3,5-Di-tert-butyl-4-hydroxy-phenyl)-(3-ethoxy-4-hydroxy-benzylamino)-acetic acid ethyl ester], the IC50 in assay [1] is greater than 74 µM; in assay [2], 59.1 µM.

For `CCOC(=O)C(NCc1ccc(OCCN(CC)CC)cc1)c1cc(C(C)(C)C)c(O)c(C(C)(C)C)c1` (centres unmarked) [Example 37, (3,5-Di-tert-butyl-4-hydroxy-phenyl)-[4-(2-diethylamino-ethoxy)-benzylamino]-acetic acid ethyl ester], the IC50 in assay [2] stood at 29.6 µM.

For `CCOC(=O)C(NCc1cc(Cl)cc(Cl)c1O)c1cc(C(C)(C)C)c(O)c(C(C)(C)C)c1` (centres unmarked) [Example 35, (3,5-Di-tert-butyl-4-hydroxy-phenyl)-(3,5-dichloro-2-hydroxy-benzylamino)-acetic acid ethyl ester], the figures for the IC50 in assay [1] and in assay [2] were greater than 74 µM and 15.9 µM, respectively.

Take `CCOC(=O)C(NCc1ccc(O)c(OC)c1)c1cc(C(C)(C)C)c(O)c(C(C)(C)C)c1` (centres unmarked) [Example 49, (3,5-Di-tert-butyl-4-hydroxy-phenyl)-(4-hydroxy-3-methoxy-benzylamino)-acetic acid ethyl ester]: the results for the concentration for half-maximal inhibition (IC50) in assay [1] and in assay [2] were greater than 74 µM and 15 µM, respectively.

As to `CCOC(=O)C(NCc1ccc([N+](=O)[O-])cc1)c1cc(C(C)(C)C)c(O)c(C(C)(C)C)c1` (centres unmarked) [Example 45, (3,5-Di-tert-butyl-4-hydroxy-phenyl)-(4-nitro-benzylamino)-acetic acid ethyl ester], the IC50 in assay [1] was greater than 74 µM; in assay [2], 96.8 µM.

With `CCOC(=O)C(NCc1ccccc1Cl)c1cc(C(C)(C)C)c(O)c(C(C)(C)C)c1` (centres unmarked) [Example 33, (2-Chloro-benzylamino)-(3,5-di-tert-butyl-4-hydroxy-phenyl)-acetic acid ethyl ester], the half-maximal inhibitory concentration (IC50) was greater than 74 µM in assay [1] and 43.4 µM in assay [2].

Turning to `CCOC(=O)C(NCc1ccc(N(C)C)cc1)c1cc(C(C)(C)C)c(O)c(C(C)(C)C)c1` (centres unmarked) [Example 38, (3,5-Di-tert-butyl-4-hydroxy-phenyl)-[4-dimethylamino-benzylamino]-acetic acid ethyl ester], the IC50 in assay [1] was greater than 74 µM; in assay [2], 54 µM.

As for `CCOC(=O)C(NC1CCCCC1)c1cc(C(C)(C)C)c(O)c(C(C)(C)C)c1` (centres unmarked) [Example 8, (3,5-Di-tert-butyl-4-hydroxy-phenyl)-[(cyclohexyl)-amino]-acetic acid etyl ester], the IC50 in assay [2] came to 4.16 µM.

As for `CCOC(=O)C(c1cc(C(C)(C)C)c(O)c(C(C)(C)C)c1)N(Cc1cccnc1)CC1CCCCC1` (centres unmarked) [Example 16, (Cyclohexylmethyl-pyridin-3-ylmethyl-amino)-(3,5-di-tert-butyl-4-hydroxy-phenyl)-acetic acid ethyl ester], the IC50 in assay [1] stood at 3.7 µM; in assay [2], 1.48 µM.

Take `CCOC(=O)C(c1cc(C(C)(C)C)c(O)c(C(C)(C)C)c1)N(Cc1cccnc1)Cc1cccnc1` (centres unmarked) [Example 9, (Bis-pyridin-3-ylmethyl-amino)-(3,5-di-tert-butyl-4-hydroxy-phenyl)-acetic acid ethyl ester]: the half-maximal inhibitory concentration (IC50) in assay [2] is 1.34 µM and 1.3 µM.

For `CCOC(=O)C(NCc1ccc(C#N)cc1)c1cc(C(C)(C)C)c(O)c(C(C)(C)C)c1` (centres unmarked) [Example 34, (4-Cyano-benzylamino)-(3,5-di-tert-butyl-4-hydroxy-phenyl)-acetic acid ethyl ester], the half-maximal inhibitory concentration (IC50) in assay [1] was greater than 74 µM; in assay [2], 57.6 µM.

For `CC(C)(C)c1cc(C(NCc2cccnc2)C(=O)O)cc(C(C)(C)C)c1O` (centres unmarked) [Example 7, (3,5-Di-tert-butyl-4-hydroxy-phenyl)-[(pyridin-3-ylmethyl)-amino]-acetic acid], the half-inhibitory concentration (IC50) in assay [2] amounted to 62.2 µM.

Turning to `CCOC(=O)C(c1cc(C(C)(C)C)c(O)c(C(C)(C)C)c1)N1CCN(C)CC1` (centres unmarked) [Example 55, (3,5-Di-tert-butyl-4-hydroxy-phenyl)-[(N'-methyl)-N-piperazinyl]-acetic acid ethyl ester], the concentration for half-maximal inhibition (IC50) in assay [2] is 1.66 µM.

For the compound `CCOC(=O)C(NCc1cccc(O)c1)c1cc(C(C)(C)C)c(O)c(C(C)(C)C)c1` (centres unmarked) [Example 42, (3,5-Di-tert-butyl-4-hydroxy-phenyl)-(3-hydroxy-benzylamino)-acetic acid ethyl ester], the results for the IC50 in assay [1] and in assay [2] were greater than 74 µM and 68.4 µM, respectively.

For `CCOC(=O)C(NCc1cc2c(cc1N)OCO2)c1cc(C(C)(C)C)c(O)c(C(C)(C)C)c1` (centres unmarked) [Example 31, [(6-Amino-benzo[1,3]dioxol-5-ylmethyl)-amino]-(3,5-di-tert-butyl-4-hydroxy-phenyl)-acetic acid ethyl ester], the IC50 is greater than 74 µM in assay [1] and 21 µM in assay [2].

In the case of `CCOC(=O)C(NCC1CCCCC1)c1cc(C(C)CC)c(O)c(C(C)CC)c1` (centres unmarked) [Example 13, (Cyclohexylmethyl-amino)-(3,5-di-sec-butyl-4-hydroxy-phenyl)-acetic acid ethyl ester], the half-inhibitory concentration (IC50) in assay [2] is 67.4 µM.

Take `CCOC(=O)C(c1cc(C(C)(C)C)c(O)c(C(C)(C)C)c1)N1CCCC1` (centres unmarked) [Example 52, (3,5-Di-tert-butyl-4-hydroxy-phenyl)-(N-pyrollidinyl)-acetic acid ethyl ester]: the IC50 in assay [1] is 2.7 µM; in assay [2], 1.55 µM.

On to `CCOC(=O)C(c1cc(C(C)(C)C)c(O)c(C(C)(C)C)c1)N(C)C` (centres unmarked) [Example 17, (3,5-Di-tert-butyl-4-hydroxy-phenyl)-dimethylamino-acetic acid ethyl ester], for which the IC50 in assay [2] was found to be 0.65 µM.

For the compound `CCOC(=O)C(NCC1CCCCC1)c1cc(-c2ccccc2)c(O)c(-c2ccccc2)c1` (centres unmarked) [Example 11, (Cyclohexylmethyl-amino)-(2'-hydroxy-[1,1';3',1"]terphenyl-5'-yl)-acetic acid ethyl ester], in assay [2], the IC50 is 60.2 µM.

As to `CCNC(C(=O)OCC)c1cc(C(C)(C)C)c(O)c(C(C)(C)C)c1` (centres unmarked) [Example 51, (3,5-Di-tert-butyl-4-hydroxy-phenyl)-(ethylamino)-acetic acid ethyl ester], the IC50 in assay [2] is 10.9 µM.

`CCOC(=O)C(NCc1ccccc1OC)c1cc(C(C)(C)C)c(O)c(C(C)(C)C)c1` (centres unmarked) [Example 44, (3,5-Di-tert-butyl-4-hydroxy-phenyl)-(2-methoxy-benzylamino)-acetic acid ethyl ester]: the IC50 was greater than 74 µM in assay [1] and 54.3 µM in assay [2].

Turning to `CCOC(=O)C(NCc1ccc(N)cc1)c1cc(C(C)(C)C)c(O)c(C(C)(C)C)c1` (centres unmarked) [Example 30, (4-Amino-benzylamino)-(3,5-di-tert-butyl-4-hydroxy-phenyl)-acetic acid ethyl ester], the IC50 in assay [1] was greater than 74 µM; in assay [2], 62.6 µM.

Regarding `CCOC(=O)C(NCC1CC1)c1cc(C(C)(C)C)c(O)c(C(C)(C)C)c1` (centres unmarked) [Example 12, (Cyclopropylmethyl-amino)-(3,5-di-tert-butyl-4-hydroxy-phenyl)-acetic acid ethyl ester], in assay [2], the IC50 amounted to 12.2 µM.

With `CCOC(=O)C(NCc1ccc(O)cc1)c1cc(C(C)(C)C)c(O)c(C(C)(C)C)c1` (centres unmarked) [Example 43, (3,5-Di-tert-butyl-4-hydroxy-phenyl)-(4-hydroxy-benzylamino)-acetic acid ethyl ester], in assay [1], the half-inhibitory concentration (IC50) is greater than 74 µM.

Turning to `CCOC(=O)C(NCc1ccoc1)c1cc(C(C)(C)C)c(O)c(C(C)(C)C)c1` (centres unmarked) [Example 41, (3,5-Di-tert-butyl-4-hydroxy-phenyl)-[(furan-3-ylmethyl)-amino]-acetic acid ethyl ester], the IC50 in assay [2] is 9.37 µM.

Turning to `CCOC(=O)C(NCc1cc(C(C)(C)C)c(O)c(C(C)(C)C)c1)c1cc(C(C)(C)C)c(O)c(C(C)(C)C)c1` (centres unmarked) [Example 18], in assay [2], the 50% inhibitory concentration (IC50) was determined as 75 µM.

Turning to `CCOC(=O)C(NCc1cccc(Cl)c1)c1cc(C(C)(C)C)c(O)c(C(C)(C)C)c1` (centres unmarked) [Example 10, (3-Chloro-benzylamino)-(3,5-di-tert-butyl-4-hydroxy-phenyl)-acetic acid ethyl ester], in assay [2], the concentration for half-maximal inhibition (IC50) stood at 12.5 µM.

As a reminder, the IC50 is the midpoint of a concentration-inhibition curve.
